Earlier results in patent EP4640072A1, “FLEECE MATERIALS TREATED WITH AN ION-PAIRING AGENT AND ORAL PRODUCTS COMPRISING FLEECE MATERIALS TREATED WITH AN ION-PAIRING AGENT” (Nicoventures Trading Limited, priority 2024, dated 2025).

Assays:
[1] = lipophilicity of the organic acid; values obtained from PubChem or calculated
[2] = not given; remark: listed apart in the source
[3] = test system: human buccal tissue; details: nicotine solution at pH = 6 relative to nicotine solution at pH 8.1; perfusion cell

Compound	log(P)* [1]	also measured
CC(/C=C/C=C(C)/C=C/C(=O)O)=C\C=C\C=C(C)\C=C\C=C(C)\C=C\C(=O)O (stereo in doubt) [norbixin, (2E,4E,6E,8E,10E,12E,14E,16E,18E)-4,8,13,17-tetramethylicosa-2,4,6,8,10,12,14,16,18-nonaenedioic acid]		solubility: water soluble
CCCCCCCS(=O)(=O)O [1-heptanesulfonic acid]	2.0	
O=C(/C=C/c1ccc(O)c(O)c1)O[C@@H](C(=O)O)[C@@H](O)C(=O)O [Caftaric acid]	1.2	
COC(=O)/C=C/C(C)=C\C=C\C(C)=C\C=C\C=C(C)\C=C\C=C(C)\C=C\C(=O)O [bixin, (2E,4E,6E,8E,10E,12E,14E,16Z,18E)-20-methoxy-4,8,13,17-tetramethyl-20-oxoicosa-2,4,6,8,10,12,14,16,18-nonaenoic acid]		solubility: soluble in fats and alcohols but insoluble in water; chemical stability (when isolated, converts via isomerization into trans-bixin (β-bixin)): chemically unstable when isolated
CCCCCCCCCCCC(=O)O [dodecanoic acid]	4.6	
CC(C)[C@@H]1CC[C@@H](C)C[C@H]1OC(=O)CCC(=O)O [monomenthyl succinate]	3	
CN1CCCC1c1cccnc1 (stereo not shown) [nicotine]		log Kα1 ([2]; pyridine ring nitrogen): 3.41; log Ka2 ([2]; pyrrolidine ring nitrogen): 8.02; factor by which the rate of diffusion across human buccal tissue was reduced [3]: ~ 7
CCCCCCCC(=O)O [octanoic acid]	3.05	
ethyl benzoic acid	2.9	
isopropyl benzoic acid	3.5	
